Test results published in US20020123503A1, “Cabergoline pharmaceutical compositions and methods of use thereof” (priority 2000, published 2002).

Test: Chemical stability of cabergoline and its tablets
Assay type: physicochemical
Conditions: normal wet granulation techniques

## C=CCN1C[C@H](C(=O)N(CCCN(C)C)C(=O)NCC)C[C@@H]2c3cccc4[nH]cc(c34)C[C@H]21 [cabergoline, 1((6-allylergolin-8.beta,-yl)-carbony.)-1-(3-(dimethylamino)propyl)-3ethylurea]
  degradation of the active ingredient: did degrade
